Patent US6730792B2, “β3 adrenergic agonists” (Eli Lilly and Company, priority 2000, dated 2004)

Target: T1, human β3 adrenergic receptor (Homo sapiens, UniProt P13945)
T1 construct: expressed in transfected cells; host or cells: DXB-11 Chinese hamster ovary (CHO) cell line, stably transfected (phd expression vector)
Assay: whole cell receptor coupled c-AMP assay, human β3 receptor in CHO cells (EC50, Emax relative to isoproterenol)
Format: cell-based
From the text: The genes encoding the human β1-adrenergic receptor (Frielle et al., Proc. Natl. Acad. Sci., 84:7920-7924, 1987), the human β2-adrenergic receptor (Kobika et al., Proc. Natl. Acad. Sci., 84:46-50, 1987, Emorine et al., Proc. Natl. Acad. Sci., 84:6995-6999, 1987) and the human β3 adrenergic receptor (Granneman et al., Molecular Pharmacology, 44(2):264-70, 1993) are individually subcloned into a phd expression vector (Grinnell et al., Bio/Technology, 5:1189-1192, 1987) and transfected into the DXB-11 Chinese hamster ovary (CHO) cell line by calcium phosphate precipitation methodology. The stably transfected cells are grown to 95% confluency in 95% Dulbecco's modified Eagles Medium (DMEM), 5% fetal bovine serum and 0.01% proline. Media is removed and the cells are washed with phosphate buffered (pH 7.4) saline (without magnesium and calcium). Cells are then lifted using an enzyme free cell dissociation solution (Specialty Media, Lavallette, N.J.) and pelleted by centrifugation.
Cells from each of the above cell lines are resuspended and added (20,000/well) to a 96-well plate. Cells are incubated at 37° C. with representative compounds of the invention for 20 minutes in buffer (Hank's balanced salt solution, 10 mM HEPES, 0.1% BSA, 1 mM L-ascorbic acid, 0.2% dimethyl sulfoxide, 1 mm 3-isobutyl-1-methylxanthine, pH 7.4). After halting the incubation with quench buffer (50 mM Na Acetate, 0.25% Triton X-100, pH 5.8), the c-AMP level is quantified by scintillation proximity assay (SPA) using a modification of the commercially available c-AMP kit (Amersham, Arlington Heights, Ill.) with rabbit anti-cAMP antibody (ICN Biomedicals, Aurora, Ohio) for the kit.
Sigmoidal dose response curves, from the whole cell receptor coupled c-AMP assay are fit to a four parameter logistic equation using non linear regression: y=(a−d)/(1+(Dose/c)^b)+d where a and d are responses at zero and maximal dose, b is the slope factor and c is the EC50 as previously described (DeLean et al., Am. J. Physiol., 235, E97-E102, 1978). EC50 is assessed as the concentration producing 50% of the maximum response to each agonist.
Isoproterenol is accepted in the art as a non-selective β3 agonist and is widely used as a comparator in evaluating the activity of compounds. See Trends in Pharm. Sci., 15:3, 1994. The % intrinsic activity (Emax) of representative compounds of the invention is assessed relative to isoproterenol by the compound's maximal response divided by the isoproterenol maximal response times 100.

[1] = % intrinsic activity relative to isoproterenol maximal response, average of at least 3 runs, c-AMP in transfected CHO cells
[2] = Emax ± standard error of the mean, average of at least 3 runs except where n = 1, compound tested in the isolated form listed
[3] = Emax ± SEM, average of at least 3 runs except as otherwise indicated, tested as the isolated form listed

T1 sequence (P13945 whole entry): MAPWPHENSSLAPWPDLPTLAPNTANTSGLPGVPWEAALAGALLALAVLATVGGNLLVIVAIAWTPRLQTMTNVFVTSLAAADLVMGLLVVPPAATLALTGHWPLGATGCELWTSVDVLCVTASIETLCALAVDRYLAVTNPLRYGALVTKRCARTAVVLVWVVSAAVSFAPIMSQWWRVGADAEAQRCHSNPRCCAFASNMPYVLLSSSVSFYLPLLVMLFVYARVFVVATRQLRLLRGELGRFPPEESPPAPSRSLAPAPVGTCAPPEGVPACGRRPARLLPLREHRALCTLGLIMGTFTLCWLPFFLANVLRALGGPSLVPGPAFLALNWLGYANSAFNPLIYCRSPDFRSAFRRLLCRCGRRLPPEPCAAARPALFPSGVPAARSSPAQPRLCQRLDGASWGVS

| Emax (%) ± SEM [2] | SMILES | also measured |
| --- | --- | --- |
|  | CC(=O)c1ccc(-c2ccccc2OC[C@@H](O)CNC(C)(C)Cc2ccc(Oc3ccc(C#N)cn3)cc2)s1.Cl [Example 407] | Emax (%) ± SEM [1]: 79.7 ± 7.6% |
|  | CC(C)(Cc1ccc(Oc2ccc(C#N)cn2)cc1)NC[C@H](O)COc1ccccc1-c1ccsc1 [Example 378] | Emax (%) ± SEM [1]: 60.2 ± 3.2% |
| 52.1 ± 2.4% | CC(C)(Cc1ccc(Oc2cccc(Cl)c2C(N)=O)cc1)NC[C@H](O)COc1ccccc1-c1cscn1.Cl [Example 246] |  |
|  | CC(C)(Cc1ccc(Oc2ccc(C(N)=O)cn2)cc1)NC[C@H](O)COc1ccccc1-c1ccsc1 [Example 379] | Emax (%) ± SEM [1]: 37.7 ± 1.6% |
| 59.5 ± 4.3% | CC(C)(Cc1ccc(Oc2ccc(S(N)(=O)=O)cc2F)cc1)NC[C@H](O)COc1ccccc1-c1cccs1.O=C(O)C(F)(F)F [Example 225] |  |
| 52.4 ± 0.8% | CC(C)(Cc1ccc(Oc2ncccc2C(N)=O)cc1)NC[C@H](O)COc1ccccc1-c1nncs1.O=C(O)C(=O)O [Example 97] |  |
|  | Cc1ccc(-c2ccccc2OC[C@@H](O)CNC(C)(C)Cc2ccc(Oc3ccc(S(C)(=O)=O)cc3)cc2)s1.Cl [Example 396] | Emax (%) ± SEM [1]: 50.5 ± 1.9% |
| 16.9 n = 1% | Cn1nccc1-c1ccccc1OC[C@@H](O)CNC(C)(C)Cc1ccc(Oc2ccc(C(N)=O)cn2)cc1 [Example 14] |  |
| 33.7 n = 1% | CC(C)(Cc1ccc(Oc2ccc(C#N)cn2)cc1)NC[C@H](O)COc1ccccc1-c1ccn[nH]1 [Example 8] |  |
|  | CC(C)(Cc1ccc(Oc2ncccc2C#N)cc1)NC[C@H](O)COc1c(F)cccc1-c1ccc(Cl)s1.Cl [Example 438] | Emax (%) ± SEM [1]: 64.3 ± 12.4% |
| 40.6 n = 1% | Cn1ccc(-c2ccccc2OC[C@@H](O)CNC(C)(C)Cc2ccc(Oc3ccc(S(C)(=O)=O)cc3)cc2)n1 [Example 128] |  |
|  | CC(C)(Cc1ccc(Oc2ccc(C#N)o2)cc1)NC[C@H](O)COc1ccccc1-c1nccs1.O=C(O)C(F)(F)F [Example 330] | Emax (%) ± SEM [3]: 55.9 ± 2.8% |
|  | CC(C)(Cc1ccc(Oc2ncccc2C#N)cc1)NC[C@H](O)COc1ccccc1-c1ccco1.Cl [Example 416] | Emax (%) ± SEM [1]: 68.9 ± 6.7% |
| 59.0 ± 10.0% | CCOC(=O)c1ccc(Oc2ccc(CC(C)(C)NC[C@H](O)COc3ccccc3-c3nccs3)cc2)c(Cl)c1.O=C(O)C(F)(F)F [Example 222] |  |
| 40.8 ± 8.3% | CC(C)(Cc1ccc(Oc2ccc(C#N)nc2)cc1)NC[C@H](O)COc1ccccc1-c1ccno1.O=C(O)C(F)(F)F [Example 221] |  |
| 85.4 ± 4.9% | CC(C)(Cc1ccc(Oc2cccc(Cl)c2C#N)cc1)NC[C@H](O)COc1ccccc1-c1cccs1.O=C(O)C(F)(F)F [Example 216] |  |
| 64.8 ± 6.3% | CC(C)(Cc1ccc(Oc2ccc(C#N)cn2)cc1)NC[C@H](O)COc1ccccc1-c1ccon1.Cl [Example 12] |  |
| 37.6 ± 2.7% | CC(C)(Cc1ccc(Oc2ccc(C(N)=O)cc2Cl)cc1)NC[C@H](O)COc1ccccc1-c1cscn1.Cl [Example 253] |  |
| 67.4 ± 4.0% | CC(C)(Cc1ccc(Oc2ncccc2C(N)=O)cc1)NC[C@H](O)COc1ccccc1-c1cnco1.Cl [Example 101] |  |
| 38.2 ± 2.0% | CC(C)(Cc1ccc(Oc2ccc(C#N)o2)cc1)NC[C@H](O)COc1ccccc1-c1cscn1.Cl [Example 260] |  |
|  | CC(C)(Cc1ccc(Oc2ncccc2C#N)cc1)NC[C@H](O)COc1ccccc1-c1ccoc1.Cl [Example 306] | Emax (%) ± SEM [3]: 82.4 ± 4.0% |
| 55.9 ± 5.8% | CC(C)(Cc1ccc(Oc2ncccc2C#N)cc1)NC[C@H](O)COc1ccccc1-c1cnco1.Cl [Example 65] |  |
| 57.6 ± 7.1% | CC(C)(Cc1ccc(Oc2ccc(S(C)(=O)=O)cc2Cl)cc1)NC[C@H](O)COc1ccccc1-c1nccs1.O=C(O)C(F)(F)F [Example 182] |  |
| 45.1 ± 1.5% | CC(C)(Cc1ccc(Oc2ccc(C#N)cc2F)cc1)NC[C@H](O)COc1ccccc1-c1cccs1.O=C(O)C(F)(F)F [Example 187] |  |
|  | CC(C)(Cc1ccc(Oc2cccnc2C#N)cc1)NC[C@H](O)COc1ccccc1-c1ccsc1.Cl [Example 421] | Emax (%) ± SEM [1]: 53.4 ± 6.9% |

| Emax (%) ± SEM [2] | SMILES | also measured |
| --- | --- | --- |
| 35.2 ± 4.3% | CC(C)(Cc1ccc(Oc2ccc(S(C)(=O)=O)cc2)cc1)NC[C@H](O)COc1ccccc1-c1ccno1.O=C(O)C(F)(F)F [Example 135] |  |
| 67.7 ± 2.7% | CC(C)(Cc1ccc(Oc2cccnc2C(N)=O)cc1)NC[C@H](O)COc1ccccc1-c1nccs1.O=C(O)C(F)(F)F [Example 197] |  |
| 78.9 ± 2.5% | CC(C)(Cc1ccc(Oc2ncccc2C#N)cc1)NC[C@H](O)COc1ccccc1-c1cccs1 [Example 50] |  |
|  | CC(C)(Cc1ccc(Oc2ccc(S(C)(=O)=O)cc2)cc1)NC[C@H](O)COc1ccccc1-c1ccc(Cl)s1.Cl [Example 393] | Emax (%) ± SEM [1]: 50.0 ± 3.6% |
| 45.1 ± 2.6% | CCOC(=O)c1ccc(Oc2ccc(CC(C)(C)NC[C@H](O)COc3ccccc3-c3nccs3)cc2)c(F)c1.O=C(O)C(F)(F)F [Example 185] |  |
|  | CC(C)(Cc1ccc(Oc2ccc(C(N)=O)cn2)cc1)NC[C@H](O)COc1ccccc1-c1cc2ccccc2o1 [Example 370] | Emax (%) ± SEM [1]: 40.3 ± 2.8% |
|  | CC(C)(Cc1ccc(Oc2ccccc2C(N)=O)cc1)NC[C@H](O)COc1ccccc1-c1ccon1.Cl [Example 301] | Emax (%) ± SEM [3]: 69.2 ± 1.2% |
| 92.4 ± 7.3% | CC(C)(Cc1ccc(Oc2ccc(Cl)nn2)cc1)NC[C@H](O)COc1ccccc1-c1cccs1.O=C(O)C(F)(F)F [Example 208] |  |
| 42.4 ± 9.4% | CC(C)(Cc1ccc(Oc2ccccc2C#N)cc1)NC[C@H](O)COc1ccc(F)cc1-c1cccs1.O=C(O)C(F)(F)F [Example 214] |  |
|  | CC(C)(Cc1ccc(Oc2ccc(S(C)(=O)=O)cc2)cc1)NC[C@H](O)COc1ccccc1-c1ccsc1.Cl [Example 382] | Emax (%) ± SEM [1]: 32.3 ± 1.9% |
| 74.5 ± 6.7% | CC(C)(Cc1ccc(Oc2cccnc2C#N)cc1)NC[C@H](O)COc1ccccc1-c1ccon1.Cl [Example 297] |  |
| 89.1 ± 2.7% | CC(C)(Cc1ccc(Oc2ccc(Cl)nn2)cc1)NC[C@H](O)COc1ccccc1-c1ccno1.O=C(O)C(F)(F)F [Example 210] |  |
| 70.1 ± 3.3% | CC(C)(Cc1ccc(Oc2ncccc2C#N)cc1)NC[C@H](O)COc1ccccc1-c1nccs1 [Example 52] |  |
| 62.2 ± 8.6% | CC(C)(Cc1ccc(Oc2ncccc2Cl)cc1)NC[C@H](O)COc1ccccc1-c1nccs1.O=C(O)C(F)(F)F [Example 179] |  |
|  | CC(C)(Cc1ccc(Oc2ccc(S(C)(=O)=O)cc2)cc1)NC[C@H](O)COc1ccccc1-c1cccnc1.Cl.Cl [Example 392] | Emax (%) ± SEM [1]: 17.6 ± 0.4% |
| 73.6 ± 8.2% | CC(C)(Cc1ccc(Oc2ccc(C(N)=O)cc2)cc1)NC[C@H](O)COc1ccccc1-c1cccs1.O=C(O)C(F)(F)F [Example 123] |  |
| 52.4 ± 6.9% | CC(C)(Cc1ccc(Oc2ncccc2Cl)cc1)NC[C@H](O)COc1ccccc1-c1ccno1.O=C(O)C(F)(F)F [Example 180] |  |
| 56.9 ± 8.6% | CCOC(=O)c1cccnc1Oc1ccc(CC(C)(C)NC[C@H](O)COc2ccccc2-c2ccno2)cc1.O=C(O)C(F)(F)F [Example 112] |  |
|  | CC(C)(Cc1ccc(Oc2ncccc2C#N)cc1)NC[C@H](O)COc1c(F)cccc1-c1ccco1.Cl [Example 440] | Emax (%) ± SEM [1]: 73.4 ± 4.4% |
| 47.9 ± 6.5% | CC(C)(Cc1ccc(Oc2ccc(C(F)(F)F)cc2Cl)cc1)NC[C@H](O)COc1ccccc1-c1nccs1.O=C(O)C(F)(F)F [Example 171] |  |
|  | CC(C)(Cc1ccc(Oc2ccc(C(N)=O)s2)cc1)NC[C@H](O)COc1ccccc1-c1nccs1.O=C(O)C(F)(F)F [Example 329] | Emax (%) ± SEM [3]: 60.2 ± 3.0% |
|  | CC(C)(Cc1ccc(Oc2ccc(C#N)nc2)cc1)NC[C@H](O)COc1ccccc1-c1ncco1.O=C(O)C(F)(F)F [Example 364] | Emax (%) ± SEM [3]: 69.2 ± 2.5% |
| 60.4 ± 5.1% | CC(C)(Cc1ccc(Oc2ncccc2C(N)=O)cc1)NC[C@H](O)COc1ccccc1-c1nc2ccccc2o1 [Example 81] |  |
| 18.0 ± 6.5% | CC(C)(Cc1ccc(Oc2ccc(C#N)cn2)cc1)NC[C@H](O)COc1ccccc1N1CCCC1=O [Example 11] |  |
|  | CC(C)(Cc1ccc(Oc2ncccc2C(N)=O)cc1)NC[C@H](O)COc1ccccc1-c1ccsc1.Cl [Example 446] | Emax (%) ± SEM [1]: 64.0 ± 6.0% |
